Data on 13 molecules can be found in patent EP4678638A1, “NEW E3 UBIQUITIN LIGASE LIGAND, PROTEIN DEGRADATION AGENT AND USE THEREOF” (priority 2023, dated 2024).

One test has as its system H1975. Description: CCK-8 proliferation, NCI-H1975 (H1975). Type of test: cell-based, Human. Conditions: Homo sapiens, NCI-H1975; CCK-8; 96 hours; read-out: Inhibitory activity (IC50) on tumor cell proliferation, H1975. Summed up:
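Tumor cells were cultured at 37°C with 5% CO2, seeded, and after 24h treated with compounds at 10 concentrations starting at 10µM (5-fold serial dilutions).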

The subject of the next test is EGFR. The test is described as follows: Western blot degradation of EGFR (H1975 Cell). As to conditions: Table D2. Type of test: cell-based, Human. On the procedure: Conventional Western blot assay was performed to evaluate the effects of the compounds of the present disclosure on the expression of target proteins in cells.
(1) Cell Seeding and Protein Harvesting: The selected cells were processed according to the cell seeding procedure and protein harvesting procedure in Table III-2. Table III-2 Cell Seeding and Protein Harvesting Procedures
(2) To the collected supernatant, 5X SDS sample loading buffer was added, followed by denaturation at 95°C for 5 minutes. The denatured samples were then separated by SDS-PAGE electrophoresis on a polyacrylamide gel. Proteins were transferred to a nitrocellulose membrane (0.45 µm NC membrane), blocked with blocking buffer at room temperature for 1 hour, and subjected to antibody incubation and development procedures according to the antibody manufacturer's instructions (Cell Signaling Technology).
Half-Maximal Degradation Concentration value (the drug concentration required for degrading proteins by 50%, abbreviated as DC50) reads method: comparing the grayscale values of Western blot bands from drug-treated samples with those from blank DMSO-treated controls, and identifying the drug concentration range at which the grayscale value is half that of the DMSO-treated control bands.
DC50 values can be calculated using ImageJ software to measure grayscale values of Western blot bands from drug-treated samples. The concentration-response curve is fitted to estimate the drug concentration corresponding to half the grayscale value.
Target protein remaining (%) refers to the percentage of target protein remaining in hPBMC cells after treatment with protein degrader compounds.
Calculation method for target protein remaining (%): Use ImageJ software to measure grayscale values of Western blot bands from drug (protein degrader)-treated samples. The grayscale value of drug-treated bands is divided by that of internal control protein bands, and the resulting quotient is normalized to obtain the relative percentage of remaining target protein after protein degrader treatment.
Target protein degradation rate (%) = 100% - target protein remaining (%).
A general note: A western blot detects proteins with antibodies after separation by electrophoresis.

SMILES strings stand for the structures.

For the molecule `O=C1CCN(c2ccc(CN3CCN(c4ccc(-c5cc(F)c6c(c5)C(=O)N(C(C(=O)Nc5nccs5)c5ncn7c5CCC7)C6)cc4)CC3)cn2)C(=O)N1` (centres unmarked) [GT-06166, 2-(6,7-dihydro-5H-pyrrolo[1,2-c]imidazol-1-yl)-2-(6-(4-(4-((6-(2,4-dioxotetrahydropyrimidin-1(2H)-yl)pyridin-3-yl)methyl)piperazin-1-yl)phenyl)-4-fluoro-1-oxoisoindolin-2-yl)-N-(thiazol-2-yl)acetamide], the IC50 in the test on H1975 fell in the range of 1 to 10 nM. In addition, the “Degradation of substrate protein EGFR (substrate protein remaining %)” value (“Degradation … (substrate protein remaining %)” for short) in the test with EGFR is “A (A is defined as 0% ≤ substrate protein remaining % ≤ 80%)”.
On the same counts, the results for `O=C1CCC(c2ccc(CN3C[C@@H]4C[C@H]3CN4c3ccc(-c4cc(F)c5c(c4)C(=O)N(C(C(=O)Nc4nccs4)c4ncn6c4CCC6)C5)cc3)cc2)C(=O)N1` (stereo partly drawn) [GT-05115, 2-(6,7-dihydro-5H-pyrrolo[1,2-c]imidazol-1-yl)-2-(6-(4-((1S,4S)-5-(4-(2,6-dioxopiperidin-3-yl)benzyl)-2,5-diazabicyclo[2.2.1]heptan-2-yl)phenyl)-4-fluoro-1-oxoisoindolin-2-yl)-N-(thiazol-2-yl)acetamide] are 10 to 50 nM and “A (A is defined as 0% ≤ substrate protein remaining % ≤ 80%)”.
For `O=C1CCN(c2cccc(CN3CCN(C4CCN(c5ccc(-c6cc(F)c7c(c6)C(=O)N(C(C(=O)Nc6nccs6)c6ncn8c6CCC8)C7)cc5)CC4)CC3)c2)C(=O)N1` (centres unmarked) [GT-06245, 2-(6,7-dihydro-5H-pyrrolo[1,2-c]imidazol-1-yl)-2-(6-(4-(4-(4-(3-(2,4-dioxotetrahydropyrimidin-1(2H)-yl)benzyl)piperazin-1-yl)piperidin-1-yl)phenyl)-4-fluoro-1-oxoisoindolin-2-yl)-N-(thiazol-2-yl)acetamide], in that order: 1 to 10 nM and “A (A is defined as 0% ≤ substrate protein remaining % ≤ 80%)”.
In the case of `O=C1CCN(c2ccc(CN3CCN(C4CCN(c5ccc(-c6cc(F)c7c(c6)C(=O)N(C(C(=O)Nc6nccs6)c6ncn8c6CCC8)C7)cc5)CC4(F)F)CC3)nc2)C(=O)N1` (centres unmarked) [GT-06319, 2-(6,7-dihydro-5H-pyrrolo[1,2-c]imidazol-1-yl)-2-(6-(4-(4-(4-((5-(2,4-dioxotetrahydropyrimidin-1(2H)-yl)pyridin-2-yl)methyl)piperazin-1-yl)-3,3-difluoropiperidin-1-yl)phenyl)-4-fluoro-1-oxoisoindolin-2-yl)-N-(thiazol-2-yl)acetamide], in the test with H1975, the IC50 fell in the range of 1 to 10 nM. Further, the “Degradation … (substrate protein remaining %)” value with EGFR is reported as “A (A is defined as 0% ≤ substrate protein remaining % ≤ 80%)”.
Turning to `CN(Cc1ccnc(N2CCC(=O)NC2=O)c1)C1CCN(c2ccc(-c3cc(F)c4c(c3)C(=O)N(C(C(=O)Nc3nccs3)c3ncn5c3CCC5)C4)cc2)CC1` (centres unmarked) [GT-07383, 2-(6,7-dihydro-5H-pyrrolo[1,2-c]imidazol-1-yl)-2-(6-(4-(4-(((2-(2,4-dioxotetrahydropyrimidin-1(2H)-yl)pyridin-4-yl)methyl)(methyl)amino)piperidin-1-yl)phenyl)-4-fluoro-1-oxoisoindolin-2-yl)-N-(thiazol-2-yl)acetamide], the IC50 in the test with H1975 was in the range of 1 to 10 nM. Besides, the “Degradation … (substrate protein remaining %)” value in the test on EGFR is listed as “A (A is defined as 0% ≤ substrate protein remaining % ≤ 80%)”.
Take `O=C1CCN(c2ccc(CN3CCN(c4ccc(-c5cc(F)c6c(c5)C(=O)N(C(C(=O)Nc5nccs5)c5ncn7c5CCC7)C6)cc4)CC3)cc2)C(=O)N1` (centres unmarked) [GT-06164, 2-(6,7-dihydro-5H-pyrrolo[1,2-c]imidazol-1-yl)-2-(6-(4-(4-(4-(2,4-dioxotetrahydropyrimidin-1(2H)-yl)benzyl)piperazin-1-yl)phenyl)-4-fluoro-1-oxoisoindolin-2-yl)-N-(thiazol-2-yl)acetamide]: in the test on H1975, the IC50 lay in the range of 1 to 10 nM. Moreover, the “Degradation … (substrate protein remaining %)” value with EGFR was “A (A is defined as 0% ≤ substrate protein remaining % ≤ 80%)”.
On to `O=C1CCC(Nc2cccc(CN3CCC(N4CCN(c5ccc(-c6cc(F)c7c(c6)C(=O)N(C(C(=O)Nc6nccs6)c6ncn8c6CCC8)C7)cc5)CC4)CC3)c2)C(=O)N1` (centres unmarked) [GT-06331, 2-(6,7-dihydro-5H-pyrrolo[1,2-c]imidazol-1-yl)-2-(6-(4-(4-(1-(3-((2,6-dioxopiperidin-3-yl)amino)benzyl)piperidin-4-yl)piperazin-1-yl)phenyl)-4-fluoro-1-oxoisoindolin-2-yl)-N-(thiazol-2-yl)acetamide], for which, in the test with H1975, the IC50 was in the range of 10 to 50 nM. Also, the “Degradation … (substrate protein remaining %)” value in the test on EGFR was “A (A is defined as 0% ≤ substrate protein remaining % ≤ 80%)”.
For `O=C1CCN(c2cncc(CN3C[C@H]4C[C@@H]3CN4c3ccc(-c4cc(F)c5c(c4)C(=O)N(C(C(=O)Nc4nccs4)c4ncn6c4CCC6)C5)cc3)c2)C(=O)N1` (stereo partly drawn) [GT-07388, 2-(6,7-dihydro-5H-pyrrolo[1,2-c]imidazol-1-yl)-2-(6-(4-((1R,4R)-5-((5-(2,4-dioxotetrahydropyrimidin-1(2H)-yl)pyridin-3-yl)methyl)-2,5-diazabicyclo[2.2.1]heptan-2-yl)phenyl)-4-fluoro-1-oxoisoindolin-2-yl)-N-(thiazol-2-yl)acetamide], in that order: 1 to 10 nM and “A (A is defined as 0% ≤ substrate protein remaining % ≤ 80%)”.
On the same counts, the results for `O=C1CCN(c2ccc(CN3CCN(C4CCN(c5ccc(-c6cc(F)c7c(c6)C(=O)N(C(C(=O)Nc6nccs6)c6ncn8c6CCC8)C7)cc5)CC4)CC3)nc2)C(=O)N1` (centres unmarked) [GT-06246, 2-(6,7-dihydro-5H-pyrrolo[1,2-c]imidazol-1-yl)-2-(6-(4-(4-(4-((5-(2,4-dioxotetrahydropyrimidin-1(2H)-yl)pyridin-2-yl)methyl)piperazin-1-yl)piperidin-1-yl)phenyl)-4-fluoro-1-oxoisoindolin-2-yl)-N-(thiazol-2-yl)acetamide] are 1 to 10 nM and “A (A is defined as 0% ≤ substrate protein remaining % ≤ 80%)”.
On the same counts, the results for `O=C1CCN(c2ccc(CN3CCC(N4CCN(c5ccc(-c6cc(F)c7c(c6)C(=O)N(C(C(=O)Nc6nccs6)c6ncn8c6CCC8)C7)cc5)CC4)CC3)cn2)C(=O)N1` (centres unmarked) [GT-06330, 2-(6,7-dihydro-5H-pyrrolo[1,2-c]imidazol-1-yl)-2-(6-(4-(4-(1-((6-(2,4-dioxotetrahydropyrimidin-1(2H)-yl)pyridin-3-yl)methyl)piperidin-4-yl)piperazin-1-yl)phenyl)-4-fluoro-1-oxoisoindolin-2-yl)-N-(thiazol-2-yl)acetamide] are 1 to 10 nM and “A (A is defined as 0% ≤ substrate protein remaining % ≤ 80%)”.
Take `O=C1CCC(c2cncc(CN3C[C@H]4C[C@@H]3CN4c3ccc(-c4cc(F)c5c(c4)C(=O)N(C(C(=O)Nc4nccs4)c4ncn6c4CCC6)C5)cc3)c2)C(=O)N1` (stereo partly drawn) [GT-07391, 2-(6,7-dihydro-5H-pyrrolo[1,2-c]imidazol-1-yl)-2-(6-(4-((1R,4R)-5-((5-(2,6-dioxopiperidin-3-yl)pyridin-3-yl)methyl)-2,5-diazabicyclo[2.2.1]heptan-2-yl)phenyl)-4-fluoro-1-oxoisoindolin-2-yl)-N-(thiazol-2-yl)acetamide]: the IC50 with H1975 is 1 to 10 nM. Moreover, the “Degradation … (substrate protein remaining %)” value with EGFR is on record as “A (A is defined as 0% ≤ substrate protein remaining % ≤ 80%)”.
For `O=C1CCC(c2ccc(CN3CCN(c4ccc(-c5cc(F)c6c(c5)C(=O)N(C(C(=O)Nc5nccs5)c5ncn7c5CCC7)C6)cc4)CC3)cc2)C(=O)N1` (centres unmarked) [GT-06163, 2-(6,7-dihydro-5H-pyrrolo[1,2-c]imidazol-1-yl)-2-(6-(4-(4-(4-(2,6-dioxopiperidin-3-yl)benzyl)piperazin-1-yl)phenyl)-4-fluoro-1-oxoisoindolin-2-yl)-N-(thiazol-2-yl)acetamide], in that order: 1 to 10 nM and “A (A is defined as 0% ≤ substrate protein remaining % ≤ 80%)”.
In the case of `O=C1CCN(c2ccc(CN3CCC(N4CCN(c5ccc(-c6cc(F)c7c(c6)C(=O)N(C(C(=O)Nc6nccs6)c6ncn8c6CCC8)C7)cc5)CC4)CC3)nc2)C(=O)N1` (centres unmarked) [GT-06329, 2-(6,7-dihydro-5H-pyrrolo[1,2-c]imidazol-1-yl)-2-(6-(4-(4-(1-((5-(2,4-dioxotetrahydropyrimidin-1(2H)-yl)pyridin-2-yl)methyl)piperidin-4-yl)piperazin-1-yl)phenyl)-4-fluoro-1-oxoisoindolin-2-yl)-N-(thiazol-2-yl)acetamide], the IC50 in the test with H1975 was 1 to 10 nM. Further, the “Degradation … (substrate protein remaining %)” value with EGFR is reported as “A (A is defined as 0% ≤ substrate protein remaining % ≤ 80%)”.
